Test results: US20250262279A1, “DOSE REGIMEN FOR LONG-ACTING GLP1/GLUCAGON RECEPTOR AGONISTS” (Boehringer Ingelheim International GmbH, priority 2021, published 2025)

Assay: Example 3: safety (AEs, laboratory, ECG, vital signs, NASH scores)
Type: in vivo, human
Protocol: • Semaglutide • Dose: 0.25, 0.25, 0.25, 0.25, 0.5, 0.5, 0.5, 0.5, 1.0 mg (weeks 9−16) once weekly • Mode of administration: Solution for injection
Safety endpoints included Columbia-Suicide Severity Rating Scale (C-SSRS) and various electrocardiograms (ECG) assessments. Safety was assessed based on adverse events (AEs), adverse event of special interest (AESIs), clinical laboratory assessments, vital signs, and physical examination. AESIs were pre-specified in the protocol as pancreatitis and hepatic injury.
Analyses of safety were descriptive.

With `CC[C@H](C)[C@H](NC(=O)[C@H](Cc1ccccc1)NC(=O)[C@H](CCC(=O)O)NC(=O)[C@H](CCCCNC(=O)COCCOCCNC(=O)COCCOCCNC(=O)CC[C@H](NC(=O)CCCCCCCCCCCCCCCCC(=O)O)C(=O)O)NC(=O)[C@H](C)NC(=O)[C@H](C)NC(=O)[C@H](CCC(N)=O)NC(=O)CNC(=O)[C@H](CCC(=O)O)NC(=O)[C@H](CC(C)C)NC(=O)[C@H](Cc1ccc(O)cc1)NC(=O)[C@H](CO)NC(=O)[C@H](CO)NC(=O)[C@@H](NC(=O)[C@H](CC(=O)O)NC(=O)[C@H](CO)NC(=O)[C@@H](NC(=O)[C@H](Cc1ccccc1)NC(=O)[C@@H](NC(=O)CNC(=O)[C@H](CCC(=O)O)NC(=O)C(C)(C)NC(=O)[C@@H](N)Cc1cnc[nH]1)[C@@H](C)O)[C@@H](C)O)C(C)C)C(=O)N[C@@H](C)C(=O)N[C@@H](Cc1c[nH]c2ccccc12)C(=O)N[C@@H](CC(C)C)C(=O)N[C@H](C(=O)N[C@@H](CCCNC(=N)N)C(=O)NCC(=O)N[C@@H](CCCNC(=N)N)C(=O)NCC(=O)O)C(C)C` [semaglutide, reference compound] the deaths (Ex.3, whole trial) was “no deaths”, the “AEs leading to discontinuation of trial medication, number of patients” value (in vivo) was 2 N and the “AEs leading to discontinuation of trial medication, percentage of patients” value (in vivo) was “(4.0) %”. The “AEs of special interest, number of patients” value (in vivo) was 0 N, the “Any AE, number of patients” value (in vivo) was 26 N and the “Any AE, percentage of patients” value (in vivo) was “(52.0) %”. For the same compound, the “Investigator defined drug-related AEs, number of patients” value (in vivo) was 19 N, the “Investigator defined drug-related AEs, percentage of patients” value (in vivo) was “(38.0) %” and the “Serious AEs, number of patients” value (in vivo) was 0 N. The “Severe AEs, number of patients” value (in vivo) was 0 N, the cases of pancreatitis (in vivo) was “no cases of pancreatitis” and the “patients with SAEs” value (in vivo) was 0 patients. For the same compound, the “patients with SAEs assessed as drug-related by the investigator” value (in vivo) was 0 patients, the “proportion of patients with PCSA high glucose on treatment” value (in vivo) was 5.0% and the “severe AEs and serious AEs” value (in vivo) was “no severe AEs or serious AEs”.
